Laboratory results taken from the CheMixHub drug solubility set.

Assay: xn = mol fraction of the nth substance listed, in the solute-free solvent

COC(=O)Nc1nc2ccccc2[nH]1 + CCO + O
solubility (g/100 g solution)
Settings | 278.15 K | 283.15 K | 288.15 K | 293.15 K | 298.15 K | 303.15 K | 308.15 K | 313.15 K | 318.15 K
x2 = 0.0417 | 0.00112 | 0.00135 | 0.00165 | 0.00201 | 0.00246 | 0.00289 | 0.00343 | 0.00403 | 0.00475
x2 = 0.08923 | 0.00223 | 0.00272 | 0.0034 | 0.00411 | 0.00508 | 0.00599 | 0.00715 | 0.00849 | 0.01
x2 = 0.1435 | 0.00325 | 0.00396 | 0.00501 | 0.00619 | 0.00769 | 0.0092 | 0.0111 | 0.0133 | 0.0158
x2 = 0.2067 | 0.00379 | 0.00471 | 0.00609 | 0.00761 | 0.00949 | 0.0116 | 0.0142 | 0.0172 | 0.0207
x2 = 0.2813 | 0.00391 | 0.00497 | 0.00649 | 0.00846 | 0.0105 | 0.013 | 0.0162 | 0.0199 | 0.0243
x2 = 0.3701 | 0.00383 | 0.0049 | 0.00658 | 0.00849 | 0.011 | 0.0138 | 0.0174 | 0.0219 | 0.0271
x2 = 0.4762 | 0.00369 | 0.0048 | 0.00651 | 0.00862 | 0.0114 | 0.0146 | 0.0187 | 0.0237 | 0.0298
x2 = 0.6102 | 0.00358 | 0.00477 | 0.00664 | 0.00884 | 0.0118 | 0.0155 | 0.0202 | 0.0261 | 0.0332
x2 = 0.7803 | 0.0035 | 0.00477 | 0.0068 | 0.0092 | 0.0125 | 0.0167 | 0.0221 | 0.0289 | 0.0373

O=c1cc(CBr)c2ccccc2[nH]1 + CCO + O
solubility (g/100 g solution)
Settings | 278.15 K | 283.15 K | 288.15 K | 293.15 K | 298.15 K | 303.15 K | 308.15 K | 313.15 K | 318.15 K
x2 = 0.04165 | 0.0134 | 0.0174 | 0.023 | 0.0295 | 0.038 | 0.0476 | 0.0598 | 0.0753 | 0.0924
x2 = 0.08908 | 0.0233 | 0.0297 | 0.037 | 0.0455 | 0.0569 | 0.0694 | 0.0854 | 0.104 | 0.123
x2 = 0.1436 | 0.0341 | 0.042 | 0.0509 | 0.0622 | 0.075 | 0.0906 | 0.106 | 0.127 | 0.151
x2 = 0.2068 | 0.0469 | 0.0559 | 0.0666 | 0.0787 | 0.0931 | 0.11 | 0.128 | 0.148 | 0.172
x2 = 0.2812 | 0.0609 | 0.0715 | 0.0837 | 0.0964 | 0.112 | 0.13 | 0.148 | 0.168 | 0.193
x2 = 0.3698 | 0.0732 | 0.0845 | 0.0974 | 0.111 | 0.128 | 0.145 | 0.163 | 0.184 | 0.209
x2 = 0.4772 | 0.0832 | 0.0948 | 0.109 | 0.123 | 0.138 | 0.157 | 0.176 | 0.196 | 0.221
x2 = 0.6101 | 0.0917 | 0.103 | 0.116 | 0.131 | 0.147 | 0.164 | 0.182 | 0.202 | 0.224
x2 = 0.7788 | 0.0963 | 0.108 | 0.12 | 0.134 | 0.15 | 0.165 | 0.182 | 0.201 | 0.219
